Laboratory results: US8148532B2, “Spiro substituted compounds as angiogenesis inhibitors” (priority 2007, dated 2012)

Tests used:
Format in all cases: biochemical
FGFR1(h) = biological target: T1, FGFR1(h) (Homo sapiens, UniProt P11362); test: in vitro tyrosine kinase inhibition, FGFR1(h)
T1 construct: purchased Millipore Upstate Ltd
Text: (§1) Several in vitro tyrosine kinase inhibition activities can be measured according to the description in Rewcastle, G W, J. Med. Chem. 1996, 39, 918-928 and Edwards M, International Biotechnology Lab 5 (3), 19-25, 1987. Oncogene, 1990, 5: 519-524. The Baculovirus Expression System: A Laboratory Guide, L. A. King 1992. Sambrook et al, 1989, Molecular cloning—A Laboratory Manual, 2nd edition, Cold Spring Harbour Laboratory Press. O'Reilly et al, 1992, Baculovirus Expression Vectors—A Laboratory Manual, W. H. Freeman and Co, New York.
(§2) Receptor tyrosine kinase can be obtained in partially purified form from A-431 cells similar to those described by Carpenter et al., J. Biol. Chem., 1979, 254, 4884, Cohen et al., J. Biol. Chem., 1982, 257, 1523 and by Braun et al., J. Biol. Chem., 1984, 259, 2051. Some of these tests can also be contracted with Millipore Upstate Ltd for screening.

Flt1(h) = biological target: T2, Flt1(h) (Homo sapiens, UniProt P17948); test: in vitro tyrosine kinase inhibition, Flt1(h)
T2 construct: purchased Millipore Upstate Ltd
Text: as §1, §2

Flt4(h) = biological target: T3, Flt4(h) (Homo sapiens, UniProt P35916); test: in vitro tyrosine kinase inhibition, Flt4(h)
T3 construct: purchased Millipore Upstate Ltd
Text: as §1, §2

KDR(h) = biological target: T4, KDR(h) (Homo sapiens, UniProt P35968); test: in vitro tyrosine kinase inhibition, KDR(h)
T4 construct: purchased Millipore Upstate Ltd
Text: as §1, §2

T2 sequence (P17948 27-1338): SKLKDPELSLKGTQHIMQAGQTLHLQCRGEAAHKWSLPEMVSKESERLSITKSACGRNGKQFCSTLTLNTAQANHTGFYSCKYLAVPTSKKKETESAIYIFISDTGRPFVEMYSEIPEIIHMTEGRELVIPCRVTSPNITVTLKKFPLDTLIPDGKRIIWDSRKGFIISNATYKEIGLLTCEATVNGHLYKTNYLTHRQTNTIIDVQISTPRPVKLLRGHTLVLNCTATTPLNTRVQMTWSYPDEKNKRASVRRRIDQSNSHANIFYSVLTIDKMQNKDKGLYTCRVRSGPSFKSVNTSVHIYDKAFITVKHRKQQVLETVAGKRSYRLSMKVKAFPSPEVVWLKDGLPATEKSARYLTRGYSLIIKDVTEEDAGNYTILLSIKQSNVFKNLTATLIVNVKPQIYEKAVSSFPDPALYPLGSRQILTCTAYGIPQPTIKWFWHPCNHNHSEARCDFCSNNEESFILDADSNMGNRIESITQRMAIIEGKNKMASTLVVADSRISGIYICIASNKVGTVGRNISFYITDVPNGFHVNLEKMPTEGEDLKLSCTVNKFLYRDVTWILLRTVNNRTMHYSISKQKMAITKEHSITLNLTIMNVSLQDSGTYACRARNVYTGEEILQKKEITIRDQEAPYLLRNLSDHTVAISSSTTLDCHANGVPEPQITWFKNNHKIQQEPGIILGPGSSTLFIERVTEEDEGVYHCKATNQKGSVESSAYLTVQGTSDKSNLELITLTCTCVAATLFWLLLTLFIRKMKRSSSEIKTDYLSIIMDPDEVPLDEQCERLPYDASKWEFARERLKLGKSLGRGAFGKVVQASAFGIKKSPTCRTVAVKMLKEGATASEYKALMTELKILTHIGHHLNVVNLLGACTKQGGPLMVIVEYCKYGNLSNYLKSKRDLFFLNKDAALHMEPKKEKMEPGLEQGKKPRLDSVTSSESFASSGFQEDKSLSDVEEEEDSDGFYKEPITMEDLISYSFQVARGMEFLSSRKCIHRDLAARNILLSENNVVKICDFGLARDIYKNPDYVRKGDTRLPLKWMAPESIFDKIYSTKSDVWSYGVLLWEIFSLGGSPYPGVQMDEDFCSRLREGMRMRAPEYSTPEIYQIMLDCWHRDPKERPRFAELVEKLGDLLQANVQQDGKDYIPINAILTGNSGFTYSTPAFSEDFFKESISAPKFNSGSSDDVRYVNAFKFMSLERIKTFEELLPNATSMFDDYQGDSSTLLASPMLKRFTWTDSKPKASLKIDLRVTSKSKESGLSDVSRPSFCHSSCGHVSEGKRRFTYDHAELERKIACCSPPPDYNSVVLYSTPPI
T4 sequence (P35968 20-1356): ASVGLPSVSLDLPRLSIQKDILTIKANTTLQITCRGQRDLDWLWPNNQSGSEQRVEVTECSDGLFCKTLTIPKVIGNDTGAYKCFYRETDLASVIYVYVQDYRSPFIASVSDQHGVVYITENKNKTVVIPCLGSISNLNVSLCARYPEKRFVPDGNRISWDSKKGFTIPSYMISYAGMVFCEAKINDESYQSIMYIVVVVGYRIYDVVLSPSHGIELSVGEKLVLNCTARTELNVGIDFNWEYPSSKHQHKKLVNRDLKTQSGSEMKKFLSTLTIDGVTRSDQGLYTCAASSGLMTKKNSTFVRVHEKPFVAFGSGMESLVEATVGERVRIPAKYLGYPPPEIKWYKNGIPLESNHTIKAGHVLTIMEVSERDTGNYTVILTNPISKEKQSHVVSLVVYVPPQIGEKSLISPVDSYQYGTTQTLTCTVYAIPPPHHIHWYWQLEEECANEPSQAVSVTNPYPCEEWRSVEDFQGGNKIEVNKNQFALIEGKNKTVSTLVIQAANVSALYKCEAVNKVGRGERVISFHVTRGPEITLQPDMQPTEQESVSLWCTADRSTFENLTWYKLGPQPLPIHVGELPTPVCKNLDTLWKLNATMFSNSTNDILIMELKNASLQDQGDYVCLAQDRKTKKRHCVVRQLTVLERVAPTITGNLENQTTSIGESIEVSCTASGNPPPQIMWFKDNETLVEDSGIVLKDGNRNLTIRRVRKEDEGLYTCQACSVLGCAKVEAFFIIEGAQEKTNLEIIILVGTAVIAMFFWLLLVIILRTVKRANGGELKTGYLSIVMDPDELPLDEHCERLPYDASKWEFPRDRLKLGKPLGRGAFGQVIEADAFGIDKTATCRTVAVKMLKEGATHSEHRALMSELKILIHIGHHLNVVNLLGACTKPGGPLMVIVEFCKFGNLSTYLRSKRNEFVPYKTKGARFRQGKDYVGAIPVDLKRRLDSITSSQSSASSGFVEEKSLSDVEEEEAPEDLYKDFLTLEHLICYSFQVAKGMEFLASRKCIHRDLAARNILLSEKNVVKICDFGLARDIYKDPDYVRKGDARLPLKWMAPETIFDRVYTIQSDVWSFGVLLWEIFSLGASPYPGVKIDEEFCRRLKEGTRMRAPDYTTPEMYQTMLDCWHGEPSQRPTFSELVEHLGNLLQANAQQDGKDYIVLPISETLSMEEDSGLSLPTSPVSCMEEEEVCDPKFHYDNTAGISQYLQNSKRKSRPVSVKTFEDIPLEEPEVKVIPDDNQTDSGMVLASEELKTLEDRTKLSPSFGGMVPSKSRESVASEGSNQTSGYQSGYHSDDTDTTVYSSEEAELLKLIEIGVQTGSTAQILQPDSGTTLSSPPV
T1 sequence (P11362 22-822): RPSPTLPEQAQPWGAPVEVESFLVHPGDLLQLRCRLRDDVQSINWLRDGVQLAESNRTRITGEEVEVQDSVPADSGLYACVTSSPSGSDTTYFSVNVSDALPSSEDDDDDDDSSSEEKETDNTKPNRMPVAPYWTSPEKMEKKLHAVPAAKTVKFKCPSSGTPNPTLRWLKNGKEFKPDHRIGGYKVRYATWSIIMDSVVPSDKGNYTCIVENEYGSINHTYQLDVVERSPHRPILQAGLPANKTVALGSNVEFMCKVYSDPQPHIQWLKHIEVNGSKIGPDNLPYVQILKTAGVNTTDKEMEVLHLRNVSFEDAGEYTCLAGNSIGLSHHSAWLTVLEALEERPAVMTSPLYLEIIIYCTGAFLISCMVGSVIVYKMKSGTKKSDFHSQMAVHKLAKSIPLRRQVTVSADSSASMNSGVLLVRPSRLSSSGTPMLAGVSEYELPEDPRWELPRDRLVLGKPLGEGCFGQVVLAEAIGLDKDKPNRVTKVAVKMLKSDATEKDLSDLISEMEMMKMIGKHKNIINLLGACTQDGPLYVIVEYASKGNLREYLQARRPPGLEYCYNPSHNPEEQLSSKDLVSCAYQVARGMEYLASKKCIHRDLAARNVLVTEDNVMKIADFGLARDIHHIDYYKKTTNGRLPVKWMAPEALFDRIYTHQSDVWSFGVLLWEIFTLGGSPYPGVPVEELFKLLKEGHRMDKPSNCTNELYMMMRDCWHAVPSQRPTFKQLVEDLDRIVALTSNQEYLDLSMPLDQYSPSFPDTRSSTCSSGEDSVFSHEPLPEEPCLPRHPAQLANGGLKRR
T3 sequence (P35916 25-1363): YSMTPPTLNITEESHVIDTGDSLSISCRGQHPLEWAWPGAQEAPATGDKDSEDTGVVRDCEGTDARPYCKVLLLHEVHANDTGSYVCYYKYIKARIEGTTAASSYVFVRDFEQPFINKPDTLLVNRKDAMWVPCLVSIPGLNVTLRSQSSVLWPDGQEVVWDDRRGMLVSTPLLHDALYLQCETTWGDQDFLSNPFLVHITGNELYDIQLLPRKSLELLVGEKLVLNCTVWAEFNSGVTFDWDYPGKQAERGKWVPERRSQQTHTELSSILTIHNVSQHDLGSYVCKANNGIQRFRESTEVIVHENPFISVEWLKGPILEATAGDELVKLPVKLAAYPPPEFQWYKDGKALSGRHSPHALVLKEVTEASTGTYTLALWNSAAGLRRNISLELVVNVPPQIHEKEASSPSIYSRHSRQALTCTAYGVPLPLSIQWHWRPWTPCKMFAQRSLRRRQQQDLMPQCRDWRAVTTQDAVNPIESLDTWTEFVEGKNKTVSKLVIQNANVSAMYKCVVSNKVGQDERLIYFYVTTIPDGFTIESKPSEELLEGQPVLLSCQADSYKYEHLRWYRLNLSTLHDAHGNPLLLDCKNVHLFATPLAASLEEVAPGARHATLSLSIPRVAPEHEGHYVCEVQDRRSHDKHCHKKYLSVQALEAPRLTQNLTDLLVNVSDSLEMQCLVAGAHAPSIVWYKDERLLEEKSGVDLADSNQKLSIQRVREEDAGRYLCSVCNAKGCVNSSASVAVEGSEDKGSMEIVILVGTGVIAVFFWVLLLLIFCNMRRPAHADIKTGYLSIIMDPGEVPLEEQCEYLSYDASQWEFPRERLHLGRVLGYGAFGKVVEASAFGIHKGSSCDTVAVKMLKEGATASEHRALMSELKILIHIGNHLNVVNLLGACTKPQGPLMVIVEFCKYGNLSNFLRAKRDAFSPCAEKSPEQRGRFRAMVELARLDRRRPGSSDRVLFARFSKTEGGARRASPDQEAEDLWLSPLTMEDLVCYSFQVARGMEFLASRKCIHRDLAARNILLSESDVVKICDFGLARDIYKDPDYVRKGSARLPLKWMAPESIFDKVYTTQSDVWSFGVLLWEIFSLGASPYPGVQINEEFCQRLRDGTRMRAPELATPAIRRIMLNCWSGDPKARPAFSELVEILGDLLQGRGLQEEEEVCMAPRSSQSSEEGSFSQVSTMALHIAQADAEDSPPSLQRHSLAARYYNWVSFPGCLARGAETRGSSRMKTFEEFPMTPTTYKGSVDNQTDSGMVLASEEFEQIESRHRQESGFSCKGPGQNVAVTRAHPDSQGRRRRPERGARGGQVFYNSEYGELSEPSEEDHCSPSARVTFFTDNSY

IC50 (FGFR1(h)): 20 nM | IC50 (Flt1(h)): 4 nM | IC50 (Flt4(h)): 1 nM | IC50 (KDR(h)): 45 nM
SMILES: COc1cc2c(Oc3ccc4[nH]c(C)cc4c3F)ccnc2cc1OCC1(N)CC1 [AL3818]
